Measurements from patent US20260305610A1, “TRIAZOLE COMPOUND, AND PREPARATION METHOD THEREFOR, HERBICIDAL COMPOSITION AND USE THEREOF” (QINGDAO KINGAGROOT CHEMICAL COMPOUND CO., LTD., priority 2023, published 2026).

Experiments:
[1] = system: monocotyledonous and dicotyledonous weeds; assay: Pre-emergence test experiment (weeds); assay type: in vivo; parameters: key: 9: completely dead; 8: growth control rate is greater than or equal to 90% and less than 100%; 7: growth control rate is greater than or equal to 80% and less than 90%; 6: growth control rate is greater than or equal to 70% and less than 80%; growth control rate is greater than or equal to 50% and less than 70%; 4: growth control rate is greater than or equal to 30% and less than 50%; growth control rate is greater than or equal to 20% and less than 30%; growth control rate is greater than or equal to 10% and less than 20%; growth control rate is less than 10%; 0: no effect; settings: 30 g a.i./ha
[2] = system: major crops; assay: Pre-emergence test experiment (crops); assay type: in vivo; parameters: key: 9: completely dead; 8: growth control rate is greater than or equal to 90% and less than 100%; 7: growth control rate is greater than or equal to 80% and less than 90%; 6: growth control rate is greater than or equal to 70% and less than 80%; growth control rate is greater than or equal to 50% and less than 70%; 4: growth control rate is greater than or equal to 30% and less than 50%; growth control rate is greater than or equal to 20% and less than 30%; growth control rate is greater than or equal to 10% and less than 20%; growth control rate is less than 10%; 0: no effect; settings: 30 g a.i./ha

CCc1ccc(-n2cnc(C(F)(F)F)n2)nc1Oc1cccc(OC(F)F)c1 [Compound 133]
Pre-emergence activity level (growth control rate) on Amaranthus retroflexus [1]: 9 | Pre-emergence activity level (growth control rate) on Descurainia sophia [1]: 9 | Pre-emergence activity level (growth control rate) on Digitaria sanguinalis [1]: 9 | Pre-emergence activity level (growth control rate) on Setaria viridis [1]: 9 | Pre-emergence activity level (growth control rate) on Solanum nigrum [1]: 9 | Pre-emergence activity level (growth control rate) on Veronica [1]: 9 | Pre-emergence plant damage level (growth control rate) on Corn [2]: 0 | Pre-emergence plant damage level (growth control rate) on Cotton [2]: 0 | Pre-emergence plant damage level (growth control rate) on Soybean [2]: 0

COCc1ccc(-n2cnc(C(F)(F)F)n2)nc1Oc1cccc(OC(F)(F)F)c1 [Compound 145]
Pre-emergence activity level (growth control rate) on Amaranthus retroflexus [1]: 9 | Pre-emergence activity level (growth control rate) on Descurainia sophia [1]: 9 | Pre-emergence activity level (growth control rate) on Digitaria sanguinalis [1]: 9 | Pre-emergence activity level (growth control rate) on Setaria viridis [1]: 9 | Pre-emergence activity level (growth control rate) on Solanum nigrum [1]: 9 | Pre-emergence activity level (growth control rate) on Veronica [1]: 9 | Pre-emergence plant damage level (growth control rate) on Corn [2]: 0 | Pre-emergence plant damage level (growth control rate) on Cotton [2]: 0 | Pre-emergence plant damage level (growth control rate) on Soybean [2]: 0

Cc1ccc(-n2cnc(C(F)F)n2)nc1Oc1cccc(OC(F)F)c1 [Compound 79]
Pre-emergence activity level (growth control rate) on Amaranthus retroflexus [1]: 9 | Pre-emergence activity level (growth control rate) on Descurainia sophia [1]: 9 | Pre-emergence activity level (growth control rate) on Digitaria sanguinalis [1]: 9 | Pre-emergence activity level (growth control rate) on Setaria viridis [1]: 9 | Pre-emergence activity level (growth control rate) on Solanum nigrum [1]: 8 (growth control rate is greater than or equal to 90% and less than 100%) | Pre-emergence activity level (growth control rate) on Veronica [1]: 9 | Pre-emergence plant damage level (growth control rate) on Corn [2]: 0 | Pre-emergence plant damage level (growth control rate) on Cotton [2]: 0 | Pre-emergence plant damage level (growth control rate) on Soybean [2]: 0

COCc1ccc(-n2cnc(C(F)(F)C(F)(F)F)n2)nc1Oc1cccc(C(F)(F)F)c1 [Compound 141]
Pre-emergence activity level (growth control rate) on Amaranthus retroflexus [1]: 8 (growth control rate is greater than or equal to 90% and less than 100%) | Pre-emergence activity level (growth control rate) on Descurainia sophia [1]: 9 | Pre-emergence activity level (growth control rate) on Digitaria sanguinalis [1]: 9 | Pre-emergence activity level (growth control rate) on Setaria viridis [1]: 8 (growth control rate is greater than or equal to 90% and less than 100%) | Pre-emergence activity level (growth control rate) on Solanum nigrum [1]: 9 | Pre-emergence activity level (growth control rate) on Veronica [1]: 9 | Pre-emergence plant damage level (growth control rate) on Corn [2]: 0 | Pre-emergence plant damage level (growth control rate) on Cotton [2]: 0 | Pre-emergence plant damage level (growth control rate) on Soybean [2]: 0

COCc1ccc(-n2cnc(C(F)(F)C(F)(F)F)n2)nc1Oc1cccc(OC(F)(F)F)c1 [Compound 77]
Pre-emergence activity level (growth control rate) on Amaranthus retroflexus [1]: 9 | Pre-emergence activity level (growth control rate) on Descurainia sophia [1]: 9 | Pre-emergence activity level (growth control rate) on Digitaria sanguinalis [1]: 8 (growth control rate is greater than or equal to 90% and less than 100%) | Pre-emergence activity level (growth control rate) on Setaria viridis [1]: 8 (growth control rate is greater than or equal to 90% and less than 100%) | Pre-emergence activity level (growth control rate) on Solanum nigrum [1]: 7 (growth control rate is greater than or equal to 80% and less than 90%) | Pre-emergence activity level (growth control rate) on Veronica [1]: 9 | Pre-emergence plant damage level (growth control rate) on Corn [2]: 0 | Pre-emergence plant damage level (growth control rate) on Cotton [2]: 0 | Pre-emergence plant damage level (growth control rate) on Soybean [2]: 0

Cc1cc(Oc2cccc(C(F)(F)F)c2)nc(-n2cnc(C(F)(F)F)n2)c1 [Compound 5]
Pre-emergence activity level (growth control rate) on Amaranthus retroflexus [1]: 9 | Pre-emergence activity level (growth control rate) on Descurainia sophia [1]: 9 | Pre-emergence activity level (growth control rate) on Digitaria sanguinalis [1]: 9 | Pre-emergence activity level (growth control rate) on Setaria viridis [1]: 9 | Pre-emergence activity level (growth control rate) on Solanum nigrum [1]: 9 | Pre-emergence activity level (growth control rate) on Veronica [1]: 9 | Pre-emergence plant damage level (growth control rate) on Corn [2]: 0 | Pre-emergence plant damage level (growth control rate) on Cotton [2]: 0 | Pre-emergence plant damage level (growth control rate) on Soybean [2]: 0

Cc1ccc(-n2cnc(C(F)(F)F)n2)nc1Oc1cncc(C(F)(F)F)c1 [Compound 11]
Pre-emergence activity level (growth control rate) on Amaranthus retroflexus [1]: 9 | Pre-emergence activity level (growth control rate) on Descurainia sophia [1]: 9 | Pre-emergence activity level (growth control rate) on Digitaria sanguinalis [1]: 9 | Pre-emergence activity level (growth control rate) on Setaria viridis [1]: 9 | Pre-emergence activity level (growth control rate) on Solanum nigrum [1]: 9 | Pre-emergence activity level (growth control rate) on Veronica [1]: 9 | Pre-emergence plant damage level (growth control rate) on Corn [2]: 0 | Pre-emergence plant damage level (growth control rate) on Cotton [2]: 0 | Pre-emergence plant damage level (growth control rate) on Soybean [2]: 0

COCc1ccc(-n2cnc(C(F)(F)F)n2)nc1Oc1ccc(F)c(OC(F)(F)F)c1 [Compound 146]
Pre-emergence activity level (growth control rate) on Amaranthus retroflexus [1]: 9 | Pre-emergence activity level (growth control rate) on Descurainia sophia [1]: 9 | Pre-emergence activity level (growth control rate) on Digitaria sanguinalis [1]: 8 (growth control rate is greater than or equal to 90% and less than 100%) | Pre-emergence activity level (growth control rate) on Setaria viridis [1]: 9 | Pre-emergence activity level (growth control rate) on Solanum nigrum [1]: 9 | Pre-emergence activity level (growth control rate) on Veronica [1]: 9 | Pre-emergence plant damage level (growth control rate) on Corn [2]: 0 | Pre-emergence plant damage level (growth control rate) on Cotton [2]: 0 | Pre-emergence plant damage level (growth control rate) on Soybean [2]: 0

Cc1ccc(-n2cnc(C(F)(F)F)n2)nc1Oc1cccc(OC(F)F)c1 [Compound 43]
Pre-emergence activity level (growth control rate) on Amaranthus retroflexus [1]: 9 | Pre-emergence activity level (growth control rate) on Descurainia sophia [1]: 9 | Pre-emergence activity level (growth control rate) on Digitaria sanguinalis [1]: 9 | Pre-emergence activity level (growth control rate) on Setaria viridis [1]: 8 (growth control rate is greater than or equal to 90% and less than 100%) | Pre-emergence activity level (growth control rate) on Solanum nigrum [1]: 7 (growth control rate is greater than or equal to 80% and less than 90%) | Pre-emergence activity level (growth control rate) on Veronica [1]: 9 | Pre-emergence plant damage level (growth control rate) on Corn [2]: 0 | Pre-emergence plant damage level (growth control rate) on Cotton [2]: 0 | Pre-emergence plant damage level (growth control rate) on Soybean [2]: 0

Cc1ccc(-n2cnc(C(F)(F)F)n2)nc1Oc1ccc(F)c(OC(F)F)c1 [Compound 75]
Pre-emergence activity level (growth control rate) on Amaranthus retroflexus [1]: 9 | Pre-emergence activity level (growth control rate) on Descurainia sophia [1]: 9 | Pre-emergence activity level (growth control rate) on Digitaria sanguinalis [1]: 9 | Pre-emergence activity level (growth control rate) on Setaria viridis [1]: 9 | Pre-emergence activity level (growth control rate) on Solanum nigrum [1]: 9 | Pre-emergence activity level (growth control rate) on Veronica [1]: 9 | Pre-emergence plant damage level (growth control rate) on Corn [2]: 0 | Pre-emergence plant damage level (growth control rate) on Cotton [2]: 0 | Pre-emergence plant damage level (growth control rate) on Soybean [2]: 0

CCc1ccc(-n2cnc(C(F)F)n2)nc1Oc1cccc(C(F)(F)F)c1 [Compound 72]
Pre-emergence activity level (growth control rate) on Amaranthus retroflexus [1]: 9 | Pre-emergence activity level (growth control rate) on Descurainia sophia [1]: 9 | Pre-emergence activity level (growth control rate) on Digitaria sanguinalis [1]: 7 (growth control rate is greater than or equal to 80% and less than 90%) | Pre-emergence activity level (growth control rate) on Setaria viridis [1]: 8 (growth control rate is greater than or equal to 90% and less than 100%) | Pre-emergence activity level (growth control rate) on Solanum nigrum [1]: 9 | Pre-emergence activity level (growth control rate) on Veronica [1]: 9 | Pre-emergence plant damage level (growth control rate) on Corn [2]: 0 | Pre-emergence plant damage level (growth control rate) on Cotton [2]: 0 | Pre-emergence plant damage level (growth control rate) on Soybean [2]: 0

COCc1ccc(-n2cnc(C(F)(F)F)n2)nc1Oc1cncc(C(F)(F)F)c1 [Compound 142]
Pre-emergence activity level (growth control rate) on Amaranthus retroflexus [1]: 9 | Pre-emergence activity level (growth control rate) on Descurainia sophia [1]: 9 | Pre-emergence activity level (growth control rate) on Digitaria sanguinalis [1]: 9 | Pre-emergence activity level (growth control rate) on Setaria viridis [1]: 9 | Pre-emergence activity level (growth control rate) on Solanum nigrum [1]: 9 | Pre-emergence plant damage level (growth control rate) on Corn [2]: 0 | Pre-emergence plant damage level (growth control rate) on Cotton [2]: 0 | Pre-emergence plant damage level (growth control rate) on Soybean [2]: 0

COc1cc(Oc2cccc(OC(F)(F)F)c2)nc(-n2cnc(C(F)F)n2)c1 [Compound 67]
Pre-emergence activity level (growth control rate) on Amaranthus retroflexus [1]: 9 | Pre-emergence activity level (growth control rate) on Descurainia sophia [1]: 9 | Pre-emergence activity level (growth control rate) on Digitaria sanguinalis [1]: 7 (growth control rate is greater than or equal to 80% and less than 90%) | Pre-emergence activity level (growth control rate) on Setaria viridis [1]: 7 (growth control rate is greater than or equal to 80% and less than 90%) | Pre-emergence activity level (growth control rate) on Veronica [1]: 9 | Pre-emergence plant damage level (growth control rate) on Corn [2]: 0 | Pre-emergence plant damage level (growth control rate) on Cotton [2]: 0 | Pre-emergence plant damage level (growth control rate) on Soybean [2]: 0

Cc1ccc(-n2cnc(C(F)(F)F)n2)nc1Oc1cccc(F)c1 [Compound 39]
Pre-emergence activity level (growth control rate) on Amaranthus retroflexus [1]: 9 | Pre-emergence activity level (growth control rate) on Veronica [1]: 9 | Pre-emergence plant damage level (growth control rate) on Corn [2]: 0 | Pre-emergence plant damage level (growth control rate) on Cotton [2]: 0 | Pre-emergence plant damage level (growth control rate) on Soybean [2]: 0

CCc1ccc(-n2cnc(C(F)F)n2)nc1Oc1cncc(C(F)(F)F)c1 [Compound 74]
Pre-emergence activity level (growth control rate) on Amaranthus retroflexus [1]: 9 | Pre-emergence activity level (growth control rate) on Descurainia sophia [1]: 9 | Pre-emergence activity level (growth control rate) on Digitaria sanguinalis [1]: 9 | Pre-emergence activity level (growth control rate) on Setaria viridis [1]: 8 (growth control rate is greater than or equal to 90% and less than 100%) | Pre-emergence activity level (growth control rate) on Solanum nigrum [1]: 9 | Pre-emergence activity level (growth control rate) on Veronica [1]: 9 | Pre-emergence plant damage level (growth control rate) on Corn [2]: 0 | Pre-emergence plant damage level (growth control rate) on Cotton [2]: 0 | Pre-emergence plant damage level (growth control rate) on Soybean [2]: 0
